According to patent US20090005395A1 (Solvay Pharmaceuticals, B.V., priority 2007, published 2009):

Tests used:
[1] = Reduction of sildenafil N-oxide in the human colon model TIM2; assay type: in vitro ADME
Procedure: The human colon model TIM2 (TNO Intestinal Model 2) is a dynamic model for the human large intestine that simulates in vivo conditions. It is an artificial digestive system that has been validated by many studies (Minekus, 1999).
Suspended in 1% methylcellulose, sildenafil-N-oxide (1 mg) was inserted into the lumen (120 ml) of the TIM2 model (see above, Minekus, 1999). Samples from the lumen and the dialysate (the latter being a model for the vascular bed of the intestines) were taken at various time intervals, and analyzed for sildenafil-N-oxide and sildenafil.

PDE-VI = biological target: T1, PDE-VI (Bos taurus, UniProt P11541+P23439); experiment: In vitro inhibition of phosphodiesterases (CEREP): PDE-VI
T1 sequence (P11541 2-856 limits assumed): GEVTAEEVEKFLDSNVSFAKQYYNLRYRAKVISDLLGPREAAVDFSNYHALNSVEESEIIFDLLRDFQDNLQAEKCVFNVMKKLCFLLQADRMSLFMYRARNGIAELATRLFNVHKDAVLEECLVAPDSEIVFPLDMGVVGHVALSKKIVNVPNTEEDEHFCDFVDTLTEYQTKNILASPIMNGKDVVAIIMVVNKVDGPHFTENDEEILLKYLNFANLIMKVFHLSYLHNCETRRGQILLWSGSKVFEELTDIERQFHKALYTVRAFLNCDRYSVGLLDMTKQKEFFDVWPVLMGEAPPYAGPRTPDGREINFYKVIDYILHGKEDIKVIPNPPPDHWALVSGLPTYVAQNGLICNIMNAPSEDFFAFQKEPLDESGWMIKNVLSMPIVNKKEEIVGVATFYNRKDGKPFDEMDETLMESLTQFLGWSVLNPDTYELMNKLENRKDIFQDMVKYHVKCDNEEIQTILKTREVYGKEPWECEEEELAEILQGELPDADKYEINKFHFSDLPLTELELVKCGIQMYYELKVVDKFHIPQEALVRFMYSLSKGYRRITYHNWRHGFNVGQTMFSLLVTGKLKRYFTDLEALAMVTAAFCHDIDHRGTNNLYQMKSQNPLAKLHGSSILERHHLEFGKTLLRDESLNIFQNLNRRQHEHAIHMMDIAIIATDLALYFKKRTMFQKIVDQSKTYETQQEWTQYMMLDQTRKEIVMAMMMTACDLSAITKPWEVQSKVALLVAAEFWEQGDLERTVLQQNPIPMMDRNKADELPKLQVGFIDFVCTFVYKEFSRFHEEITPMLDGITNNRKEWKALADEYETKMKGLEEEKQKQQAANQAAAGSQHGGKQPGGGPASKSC
T1 sequence (P23439 2-850 limits assumed): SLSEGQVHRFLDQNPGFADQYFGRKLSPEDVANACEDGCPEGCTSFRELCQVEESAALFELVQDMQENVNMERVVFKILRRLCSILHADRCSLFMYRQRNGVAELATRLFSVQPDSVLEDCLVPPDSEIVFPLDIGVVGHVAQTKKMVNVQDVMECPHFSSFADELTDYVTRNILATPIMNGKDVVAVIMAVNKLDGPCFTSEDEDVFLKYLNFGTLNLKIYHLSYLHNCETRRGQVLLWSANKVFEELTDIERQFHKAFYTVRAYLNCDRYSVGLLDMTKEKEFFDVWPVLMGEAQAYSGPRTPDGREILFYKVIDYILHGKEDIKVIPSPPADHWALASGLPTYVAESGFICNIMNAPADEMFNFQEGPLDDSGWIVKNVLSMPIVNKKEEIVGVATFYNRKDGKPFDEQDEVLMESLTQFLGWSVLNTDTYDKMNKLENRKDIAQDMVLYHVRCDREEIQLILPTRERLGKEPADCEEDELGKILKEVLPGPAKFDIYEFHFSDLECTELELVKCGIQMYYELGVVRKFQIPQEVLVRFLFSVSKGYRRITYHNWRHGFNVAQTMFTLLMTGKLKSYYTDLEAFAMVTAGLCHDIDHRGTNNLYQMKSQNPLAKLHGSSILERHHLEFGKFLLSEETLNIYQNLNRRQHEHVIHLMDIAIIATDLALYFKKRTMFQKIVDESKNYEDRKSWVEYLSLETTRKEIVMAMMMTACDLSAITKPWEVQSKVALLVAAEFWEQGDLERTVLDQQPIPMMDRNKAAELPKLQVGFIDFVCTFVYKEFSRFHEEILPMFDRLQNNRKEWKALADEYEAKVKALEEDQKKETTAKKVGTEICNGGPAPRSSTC

PDE-V = PDE-V (Homo sapiens, UniProt O76074); experiment: In vitro inhibition of phosphodiesterases (CEREP): PDE-V
[2] = TIM2, 1 mg in 1% methylcellulose into lumen (120 ml), 0 h
[3] = TIM2, 1 mg into lumen (120 ml), 2 h
[4] = TIM2, 1 mg into lumen (120 ml), 4 h
[5] = TIM2, 1 mg into lumen (120 ml), 6 h
[6] = TIM2, 1 mg into lumen (120 ml), 8 h
[7] = TIM2, 1 mg into lumen (120 ml), 24 h

Sildenafil-N-oxide Dialysate concentration [1, 2]: <1.0 ng/mL | Sildenafil-N-oxide Lumen concentration [1, 2]: <1.0 ng/mL | Sildenafil-N-oxide Dialysate concentration [1, 3]: 33 ng/mL | Sildenafil-N-oxide Lumen concentration [1, 3]: 6.6 ng/mL | Sildenafil-N-oxide Dialysate concentration [1, 4]: <1.0 ng/mL | Sildenafil-N-oxide Lumen concentration [1, 4]: 4.7 ng/mL | Sildenafil-N-oxide Dialysate concentration [1, 5]: <1.0 ng/mL | Sildenafil-N-oxide Lumen concentration [1, 5]: 4.9 ng/mL | Sildenafil-N-oxide Dialysate concentration [1, 6]: <1.0 ng/mL | Sildenafil-N-oxide Lumen concentration [1, 6]: 6.7 ng/mL | Sildenafil-N-oxide Dialysate concentration [1, 7]: <1.0 ng/mL | Sildenafil-N-oxide Lumen concentration [1, 7]: 2.7 ng/mL | IC50 (PDE-VI): 1000 nM | IC50 (PDE-V): 200 nM | activity relative to the parent compound sildenafil (PDE-V): about one tenth | fold less potent than sildenafil (PDE-V; from Table 5): 10 fold
Structure (SMILES): CCCc1nn(C)c2c(=O)[nH]c(-c3cc(S(=O)(=O)N4CC[N+](C)([O-])CC4)ccc3OCC)nc12 [Sildenafil-N-oxide, 1-[[3-(6,7-dihydro-1-methyl-7-oxo-3-propyl-1H-pyrazolo[4,3-d]pyrimidin-5-yl)-4-ethoxyphenyl]sulfonyl]-4-methyl-4-oxido-piperazine]
reduction to sildenafil in TIM2 ([1]; within 2 hours after dosing): nearly quantitatively reduced to sildenafil
